Experimental findings from patent publication EP1828393B1 (priority 2004, dated 2006) are described below.

This series is described as follows: Miscibility of glycolonitrile with water. Format: physicochemical. Conditions: 25 °C. The text has this: As the reaction progresses, the α-hydroxynitrile dissolves into the aqueous phase, and eventually a single phase product mixture is obtained. The reaction may also be run by adding the α-hydroxynitrile to the reaction mixture at a rate approximately equal to the enzymatic hydrolysis reaction rate, thereby maintaining a single-phase aqueous reaction mixture, and avoiding the potential problem of substrate inhibition of the enzyme at high starting material concentrations.

Take `N#CCO` [Glycolonitrile, glycolonitrile]: the miscibility with water entry is given as “completely miscible with water in all proportions”.
